The results in this text go back to paper PMC8228075, “In Vitro and In Silico Characterization of G-Protein Coupled Receptor (GPCR) Targets of Phlorofucofuroeckol-A and Dieckol” (Marine Drugs, 2021).

Holding throughout (assay type): cell-based
Assay [1] addresses T1, Vasopressin 1A receptor (hV1AR) (Homo sapiens, UniProt P37288).
T1 construct: host or cells: CHO-V1AR cells
Description: hV1AR functional antagonist assay (Ca2+ mobilization, CHO-V1AR cells). The following applies: for Antagonist Effect: % inhibition of control response to 10 nM AVP; for IC50: antagonist effect, mean ± SD, n = 3. The source says: (§1) The in-house assay protocol and experimental conditions are reported in our previous reports. The functional effect of dieckol and PFF-A was characterized based on their modulation effect on cytosolic Ca^2+ ion mobilization using a fluorimetric detection method or by measuring their effect on cAMP modulation using homogeneous time-resolved fluorescence (HTRF) detection.
Then, fluorescent probe (Fluo4, Invitrogen) mixed with probenecid in HBSS buffer (Invitrogen, Carlsbad, CA, USA) supplemented with 20 mM HEPES, pH 7.4 (Invitrogen) was added to each well, allowing to equilibrate with the cells for 60 min at 37 °C, then 15 min at 22 °C.
On the technique in general: Calcium assays in cells follow changes in intracellular calcium, usually with a dye or a luminescent sensor.

Assay [2] has as its target T2, Free fatty acid receptor 1 (FFA1R) (GPR40) (Homo sapiens, UniProt O14842).
T2 construct: host or cells: HEK-293 cells
In words: FFA1R/GPR40 functional agonist assay (Ca2+ mobilization, HEK-293 cells). Particulars: 100 µM; % of control response to 100 µM linoleic acid. The protocol: The in-house assay protocol and experimental conditions are reported in our previous reports. […] Then, the mixture of fluorescent probe (Fluo4 Direct, Invitrogen) and probenecid in HBSS buffer (Invitrogen) complemented with 20 mM Hepes (Invitrogen) (pH 7.4) was added into each well and incubated for 60 min at 37 °C, followed by 15 min incubation at 22 °C. Thereafter, the assay plates were positioned in a CellLux microplate reader (PerkinElmer, Waltham, MA, USA) which was used for the addition of the following: For agonist assay-test compound, reference agonist, or HBSS buffer (basal control). Linoleic acid at 100 μM was added in separate assay wells for stimulated control measurement.

In assay [3] the target is T2, Free fatty acid receptor 1 (FFA1R) (GPR40). In words: FFA1R/GPR40 functional antagonist assay (Ca2+ mobilization, HEK-293 cells). Particulars: HEK293, read-out: Antagonist Effect.
For assay [4], the target named is T3, δ-opioid receptor (hδ-OPR) (Homo sapiens, UniProt P41143).
T3 construct: host or cells: rat basophil leukemia cells
Description: hδ-OPR functional antagonist assay (Ca2+ mobilization, rat basophil leukemia cells). The following applies: for Antagonist Effect: 50 µM; for IC50: antagonist effect, mean ± SD, n = 3; for inhibition at 150 µM: read-out: Antagonist Effect, 150 µM.
Text: as §1
Thereafter, a mixture of fluorescent probe (Fluo8, AAT Bioquest) and probenecid in HBSS buffer (Invitrogen) complemented with 20 mM Hepes (Millipore) (pH 7.4) was added and plates were incubated for 60 min at 30 °C. Then, the assay plates were positioned in a FlipR Tetra microplate reader (Molecular Device, San Jose, CA, USA) for the addition of the test compound, reference agonist/antagonist, or HBSS buffer (basal control). Change in fluorescence intensity that varies proportionally to the free cytosolic Ca^2+ ion concentration was measured.

The next assay concerns the target T4, h5-HT1AR (Homo sapiens, UniProt P08908).
T4 construct: host or cells: Ba/F3-5HT1AR cells
T4 sequence (P08908 1-422): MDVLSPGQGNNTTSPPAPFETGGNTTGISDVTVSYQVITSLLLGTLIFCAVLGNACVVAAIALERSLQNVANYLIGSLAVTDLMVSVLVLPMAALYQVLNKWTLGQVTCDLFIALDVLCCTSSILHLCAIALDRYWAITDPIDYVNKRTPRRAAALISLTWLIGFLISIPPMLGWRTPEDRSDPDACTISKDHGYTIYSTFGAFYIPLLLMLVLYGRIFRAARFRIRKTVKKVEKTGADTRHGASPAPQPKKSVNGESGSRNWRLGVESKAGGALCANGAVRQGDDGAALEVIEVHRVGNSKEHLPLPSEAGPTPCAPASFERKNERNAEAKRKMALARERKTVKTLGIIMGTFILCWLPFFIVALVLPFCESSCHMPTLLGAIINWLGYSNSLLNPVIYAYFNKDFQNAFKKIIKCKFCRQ
In words: h5-HT1AR functional antagonist assay (Ca2+ mobilization, Ba/F3 cells). The following applies: for Antagonist Effect: 50 µM, % inhibition of control response to 30 nM serotonin; for IC50: antagonist effect, mean ± SD, n = 3. The protocol:
as §1
In brief, Ba/F3-5HT1AR cells were first suspended in HBSS buffer (Invitrogen, Carlsbad, CA, USA) complemented with 20 mM HEPES buffer (pH 7.4). Then, the cells were distributed into microplates at a density of 1 × 10^6 cells/well. Subsequently, fluorescent probe (Fluo8, AAT Bioquest) mixed with probenecid in HBSS buffer (Invitrogen, Carlsbad, CA, USA) supplemented with 20 mM HEPES (Invitrogen) (pH 7.4) was added to each well, and the plates were incubated for 60 min at 37 °C. […] Fluorescence intensity was measured which varied in proportion to the free cytosolic Ca^2+ ion concentration.

The target of assay [5] is T5, Cannabinoid receptor 1 (CB1R) (Homo sapiens, UniProt P21554).
T5 construct: host or cells: CHO cells
In words: hCB1R functional agonist assay (cAMP, HTRF, CHO cells). Particulars: for Agonist Effect: % of control response to 10 nM CP 55940. As to the method:
as §1
Functional activity of phlorotannins over hA2AR, hα2CAR, hCB1R, GLP-1R, and h5-HT1BR was determined by measuring their effects on cAMP production by the HTRF detection method using transected cells expressing human cloned receptors.
The transfected CHO cells were suspended in HBSS buffer (Invitrogen) complemented with 20 mM HEPES (pH 7.4). […] After 30 min of incubation at 37 °C, the cells were lysed and the fluorescence acceptor (D2-labeled cAMP) and fluorescence donor (anti-cAMP antibody labeled with europium cryptate) were added.
(In general: In TR-FRET formats the signal depends on donor and acceptor labels being close together.)

Setting [6] is: 50 µM, dieckol value flagged as apparent inhibition (at least 25% agonist effect).
Where [7] appears, read: 100 µM, values flagged as apparent inhibition (at least 25% agonist effect).
The mark [8] stands for this setting: % inhibition of control response to 25 nM DPDPE.
[9] abbreviates: BaF3, read-out: Antagonist Effect.

Where “and” joins values, the source holds several entries; their conditions need not be identical. Identical values can stand only once. Marks after values point to notes of the source that are not given here.

T2 sequence (O14842 whole entry): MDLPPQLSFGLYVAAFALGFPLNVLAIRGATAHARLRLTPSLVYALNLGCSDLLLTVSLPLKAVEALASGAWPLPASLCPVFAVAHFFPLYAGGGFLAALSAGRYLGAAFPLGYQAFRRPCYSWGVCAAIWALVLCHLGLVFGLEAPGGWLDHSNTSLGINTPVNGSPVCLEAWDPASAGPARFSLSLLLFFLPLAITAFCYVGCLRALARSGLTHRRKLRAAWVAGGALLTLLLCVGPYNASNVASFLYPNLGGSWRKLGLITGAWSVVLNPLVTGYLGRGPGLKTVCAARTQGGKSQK
T3 sequence (P41143 whole entry): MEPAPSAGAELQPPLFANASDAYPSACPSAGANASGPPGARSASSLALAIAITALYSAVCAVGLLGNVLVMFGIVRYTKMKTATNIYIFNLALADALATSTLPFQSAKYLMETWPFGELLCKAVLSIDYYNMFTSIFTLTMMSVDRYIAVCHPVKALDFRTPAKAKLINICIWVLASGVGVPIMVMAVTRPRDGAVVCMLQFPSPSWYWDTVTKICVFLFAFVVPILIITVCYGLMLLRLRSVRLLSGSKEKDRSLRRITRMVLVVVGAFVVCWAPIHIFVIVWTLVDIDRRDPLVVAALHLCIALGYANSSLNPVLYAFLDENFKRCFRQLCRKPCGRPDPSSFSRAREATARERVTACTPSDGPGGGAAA
T5 sequence (P21554 whole entry): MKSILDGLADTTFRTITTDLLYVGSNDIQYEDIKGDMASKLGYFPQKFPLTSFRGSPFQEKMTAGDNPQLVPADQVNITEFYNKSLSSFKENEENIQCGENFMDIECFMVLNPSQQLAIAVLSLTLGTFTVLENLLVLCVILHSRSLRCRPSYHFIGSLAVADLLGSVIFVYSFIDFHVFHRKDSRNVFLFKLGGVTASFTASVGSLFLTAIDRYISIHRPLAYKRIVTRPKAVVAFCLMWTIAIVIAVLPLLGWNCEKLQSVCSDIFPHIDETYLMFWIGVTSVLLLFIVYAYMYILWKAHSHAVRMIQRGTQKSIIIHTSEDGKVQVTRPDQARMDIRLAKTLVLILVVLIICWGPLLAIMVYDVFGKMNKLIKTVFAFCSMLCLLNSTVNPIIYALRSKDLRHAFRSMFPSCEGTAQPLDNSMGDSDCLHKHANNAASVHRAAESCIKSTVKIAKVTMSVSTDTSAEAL
T1 sequence (P37288 whole entry): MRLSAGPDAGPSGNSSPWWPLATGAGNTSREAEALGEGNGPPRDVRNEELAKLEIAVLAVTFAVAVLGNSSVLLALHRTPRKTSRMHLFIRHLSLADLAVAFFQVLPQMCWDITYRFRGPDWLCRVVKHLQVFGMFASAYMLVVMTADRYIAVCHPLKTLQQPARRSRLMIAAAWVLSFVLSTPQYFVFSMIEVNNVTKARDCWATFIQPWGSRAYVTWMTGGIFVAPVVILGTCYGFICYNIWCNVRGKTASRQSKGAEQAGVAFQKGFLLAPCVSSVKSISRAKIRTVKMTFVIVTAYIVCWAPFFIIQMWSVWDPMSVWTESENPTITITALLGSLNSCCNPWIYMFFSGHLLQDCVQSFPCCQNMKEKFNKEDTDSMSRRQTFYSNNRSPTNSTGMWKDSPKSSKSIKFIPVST

As usually defined, the IC50 is the concentration needed to halve the response being measured. Turning to `Oc1cc(O)cc(Oc2c(O)cc(O)c3c2Oc2c(O)cc(Oc4c(O)cc(Oc5c(O)cc(O)c6c5Oc5c(O)cc(O)cc5O6)cc4O)cc2O3)c1` [Dieckol, dieckol], the “Antagonist Effect” value in assay [1] (setting [6]) was 41.53 ± 7.39 ^c %; in assay [1] (setting [7]), 57.77 ± 0.32 ^b % and 57.77 ± 0.32 ^c %; in assay [4] (setting [8]), 23.23 ± 4.04%; on h5-HT1AR it was 54.7 ± 1.7%. The 50% inhibitory concentration (IC50) in assay [1] is 82.7 ± 8.73 µM; in assay [4], 80.5 ± 13.7 µM; against h5-HT1AR, 43.3 ± 3.22 µM. Also, the inhibition at 100 µM in assay [1] (read-out: Antagonist Effect) turned out to be 57.77 ± 0.32%; in assay [3] it was 22.6 ± 5.44%; in assay [4] (read-out: Antagonist Effect, 100 µM, % inhibition of control response to 25 nM DPDPE) it was 67 ± 0.92%; at h5-HT1AR (setting [9]) it was 91 ± 3.11%. Besides, the figures for the inhibition at 150 µM in assay [1] (read-out: Antagonist Effect) and in assay [4] (setting [8]) were 68.8 ± 0.85% and 100 ± 1.53%, respectively. For the same molecule, the “Agonist Effect” value in assay [2] was 0.2 ± 1.56%; in assay [5] (100 µM), −23.3 ± 12.09%. Further, the inhibition at 200 µM at h5-HT1AR (setting [9]) is 100.9 ± 0.57%.

The term EC50 denotes the concentration at which the effect is half-maximal. Higher therefore signals lower potency in that assay. `Oc1cc(O)cc(Oc2c(O)cc(O)c3c2Oc2c(O)cc4oc5c(Oc6cc(O)cc(O)c6)c(O)cc(O)c5c4c2O3)c1` [PFF-A, phlorofucofuroeckol-A]: the “Antagonist Effect” value in assay [1] (setting [6]) is 52.80 ± 8.09%; in assay [1] (setting [7]) it was 56.90 ± 5.37 ^c %; in assay [1] (100 µM, values flagged as apparent inhibition (at least 25% agonist effect), listed as Phlorofucofuroeckol-A) it was 56.90 ± 5.37 ^b %; in assay [4] (setting [8]) it was 89.03 ± 0.70%; on h5-HT1AR, 85.55 ± 8.41%. Further, the half-maximal inhibitory concentration (IC50) in assay [1] is 42.25 ± 0.41 µM; in assay [4], under 50 µM; at h5-HT1AR, 17.8 ± 3.42 µM. In addition, the inhibition at 25 µM in assay [1] (read-out: Antagonist Effect) came out at 35.7 ± 3.88%; on h5-HT1AR (setting [9]) it was 68.2 ± 9.89%. Further, the inhibition at 100 µM stood at 56.9 ± 5.37% in assay [1] (read-out: Antagonist Effect), 30.1 ± 0.78% in assay [3] and 77 ± 11% at h5-HT1AR (setting [9]). Further, the figures for the inhibition at 150 µM in assay [1] (read-out: Antagonist Effect) and in assay [4] (setting [8]) were 56.1 ± 4.72% and 93.7 ± 6.67%, respectively. The “Agonist Effect” value in assay [2] was −1.0 ± 0.07%; in assay [5] (12.5 µM), 46.7% and 46.7 ± 6.22%; in assay [5] (25 µM), 80.3% and 80.3 ± 4.10%; in assay [5] (50 µM) it was 96.45% and 96.45 ± 5.02%; in assay [5] (100 µM), 113.8 ± 3.68%. The inhibition at 12.5 µM at h5-HT1AR (setting [9]) amounted to 37.4 ± 2.19%. Besides, the concentration giving a half-maximal response (EC50) in assay [5] (agonist effect, mean ± SD, n = 3) is 13.4 ± 2.03 µM.
